Experiment: mn = molality of the nth substance listed, in mol/kg
Details: 100 kPa, Liquid; for viscosity: Capillary tube (Ostwald / Ubbelohde) method; for mass density: Vibrating tube method

C[N+](C)(C)CCO.[Cl-] [choline chloride] + O
Details	mass density, 293.15 K [kg/m3]	mass density, 298.15 K [kg/m3]	mass density, 303.15 K [kg/m3]	mass density, 308.15 K [kg/m3]	mass density, 313.15 K [kg/m3]	viscosity, 293.15 K [mPa·s]	viscosity, 298.15 K [mPa·s]	viscosity, 303.15 K [mPa·s]	viscosity, 308.15 K [mPa·s]	viscosity, 313.15 K [mPa·s]
m1 = 0.08502	999.63	998.44	997.02	995.39	993.55	–	–	–	–	–
m1 = 0.09081	–	–	–	–	–	1.034	0.916	0.819	0.737	0.668
m1 = 0.1494	–	–	–	–	–	1.049	0.929	0.831	0.748	0.678
m1 = 0.15	1000.68	999.47	998.03	996.38	994.52	–	–	–	–	–
m1 = 0.2002	1001.48	1000.25	998.79	997.13	995.25	–	–	–	–	–
m1 = 0.2056	–	–	–	–	–	1.062	0.941	0.841	0.757	0.686
m1 = 0.2501	1002.25	1001	999.53	997.85	995.96	–	–	–	–	–
m1 = 0.2998	–	–	–	–	–	1.082	0.959	0.858	0.772	0.7
m1 = 0.3003	1003.03	1001.75	1000.27	998.57	996.66	–	–	–	–	–
m1 = 0.3503	1003.78	1002.49	1000.99	999.27	997.34	–	–	–	–	–
m1 = 0.3511	–	–	–	–	–	1.093	0.968	0.867	0.78	0.708
m1 = 0.3997	1004.52	1003.22	1001.7	999.95	998	–	–	–	–	–
m1 = 0.4226	–	–	–	–	–	1.107	0.981	0.878	0.791	0.718
m1 = 0.4502	1005.27	1003.94	1002.41	1000.64	998.67	–	–	–	–	–
m1 = 0.489	–	–	–	–	–	1.119	0.993	0.889	0.801	0.728
m1 = 0.499	1005.99	1004.64	1003.08	1001.3	999.3	–	–	–	–	–

— the NIST ThermoML archive (doi:10.1016/j.jct.2018.04.015)
